Experimental data as given in the supplement of paper PMC10331698.
± gives the standard deviation of the averaged measurements.

How the values were obtained:
Assay in all cases: level (log10 ratio to DMSO vehicle control); higher = higher biomarker level / cell amount than vehicle control
Conditions in all cases: in DMSO
[1] = compound: COC(=O)CCC(F)(F)C(F)(F)C(F)(F)C(F)(F)F [Methyl 2H,2H,3H,3H-perfluoroheptanoate]
Description: (§1)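 BioMAP Diversity Plus panel of 12 human primary cell co-culture systems (3C, 4H, LPS, SAg, BT, BF4T, BE3C, CASM3C, HDF3CGF, KF3CT, MyoF, Mphg). Compounds were added 1 h before stimulation and left for 24 h (MyoF 48 h; BT 72 h for soluble read-outs or 6 d for IgG). Biomarkers were read by ELISA, cytotoxicity by SRB, PBMC viability and proliferation by Alamar Blue. Each well value was divided by the mean of 8 DMSO control wells on the same plate and log10 transformed; duplicate blinded samples were tested at 4 concentrations.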

[2] = compound: FC(F)(F)C(F)(F)C(F)(F)C(F)(F)C(F)(F)C(F)(F)C(F)(F)C(F)(F)CCS [2-(Perfluorooctyl)ethanthiol]
Description: as §1

[3] = compound: NCC(F)(F)C(F)(F)C(F)(F)C(F)(F)C(F)(F)C(F)(F)C(F)(F)F [1H,1H-Perfluorooctylamine]
Description: as §1

Perfluorobutanoic acid = compound: O=C(O)C(F)(F)C(F)(F)C(F)(F)F [Perfluorobutanoic acid]
Description: as §1

[4] = compound: O=C(O)C(F)(F)C(F)(F)C(F)(F)OC(F)(C(F)(F)F)C(F)(F)F [Perfluoro-4-isopropoxybutanoic acid]
Description: as §1

[5] = compound: O=C(O)C(F)(F)C(F)(F)OC(F)(F)F [Perfluoro-3-methoxypropanoic acid]
Description: as §1

[6] = compound: OCCC(F)(F)C(F)(F)C(F)(F)C(F)(F)C(F)(F)C(F)(F)F [6:2 Fluorotelomer alcohol]
Description: as §1

Test System | level (log10) ([1]; 6700 nM) | level (log10) ([1]; 20000 nM) | level (log10) ([1]; 60000 nM) | level (log10) ([2]; 6700 nM) | level (log10) ([2]; 20000 nM) | level (log10) ([3]; 6700 nM) | level (log10) ([3]; 20000 nM) | level (log10) ([3]; 60000 nM) | level (log10) (Perfluorobutanoic acid; 6700 nM) | level (log10) (Perfluorobutanoic acid; 20000 nM) | level (log10) (Perfluorobutanoic acid; 60000 nM) | level (log10) ([4]; 6700 nM) | level (log10) ([4]; 20000 nM) | level (log10) ([4]; 60000 nM) | level (log10) ([5]; 6700 nM) | level (log10) ([5]; 20000 nM) | level (log10) ([5]; 60000 nM) | level (log10) ([6]; 6700 nM) | level (log10) ([6]; 20000 nM)
LPS:CD69 | -0.019 ± 0.047 | 0.0115 ± 0.042 | -0.01 ± 0.052 | 0.019 ± 0.024 | 0.0125 ± 0.043 | -0.045 ± 0.017 | -0.0255 ± 0.036 | 0.002 ± 0.0071 | -0.0005 ± 0.081 | 0.0145 ± 0.088 | 0.002 ± 0.075 | -0.0005 ± 0.023 | -0.006 ± 0.0042 | -0.0145 ± 0.046 | -0.0065 ± 0.013 | -0.02 ± 0.013 | 0.013 ± 0.025 | -0.006 ± 0.04 | 0
BF4T:CXCL8/IL-8 | 0.018 ± 0.018 | 0.0065 ± 0.0078 | 0.013 ± 0.037 | 0.0625 ± 0.037 | 0.0505 ± 0.05 | 0.039 ± 0.021 | 0.009 ± 0.014 | 0.039 ± 0.0085 | 0.0005 ± 0.012 | 0.004 ± 0.0014 | 0.0095 ± 0.033 | 0.0025 ± 0.0064 | 0.0145 ± 0.005 | 0.0235 ± 0.028 | -0.004 ± 0.025 | -0.0225 ± 0.042 | 0.001 ± 0.068 | 0.0185 ± 0.015 | 0.0005 ± 0.005
LPS:CD62E/E-Selectin | -0.0315 ± 0.0021 | -0.034 ± 0.0014 | 0.0015 ± 0.013 | 0.0275 ± 0.025 | 0.013 ± 0.011 | -0.017 ± 0.03 | -0.005 ± 0.033 | 0.008 ± 0.017 | -0.012 ± 0.018 | -0.01 ± 0.013 | -0.0085 ± 0.005 | -0.004 ± 0.013 | -0.013 ± 0.048 | 0.001 ± 0.021 | -0.0015 ± 0.011 | -0.0075 ± 0.005 | 0.0105 ± 0.0035 | 0.01 ± 0.038 | -0.025 ± 0.025
BF4T:MMP-9 | 0.007 ± 0.034 | 0.0165 ± 0.047 | 0.012 ± 0.055 | -0.047 ± 0.0099 | -0.057 ± 0.013 | 0.0005 ± 0.0064 | -0.0105 ± 0.015 | 0.002 ± 0.0028 | 0.006 ± 0.045 | 0.006 ± 0.059 | 0.022 ± 0.059 | 0.012 ± 0.0057 | 0.0275 ± 0.0064 | 0.058 ± 0.034 | -0.002 ± 0.0028 | -0.0125 ± 0.011 | 0.032 ± 0.013 | -0.0025 ± 0.011 | -0.0105 ± 0.00071
BF4T:Keratin 8/18 | 0.007 ± 0.033 | 0.0285 ± 0.033 | 0.0225 ± 0.011 | -0.0415 ± 0.0064 | -0.0615 ± 0.03 | -0.0065 ± 0.021 | -0.011 ± 0.014 | 0.0035 ± 0.00071 | -0.0015 ± 0.0092 | -0.011 ± 0.011 | 0.0075 ± 0.018 | -0.002 ± 0.0014 | -0.0115 ± 0.0021 | 0.0025 ± 0.011 | -0.002 ± 0.031 | -0.003 ± 0.0085 | 0.016 ± 0.011 | 0.0035 ± 0.0035 | 0.005 ± 0.0042
BF4T:SRB | -0.002 ± 0.0028 | 0.003 ± 0.0028 | -0.003 ± 0.0014 | -0.01 ± 0.013 | -0.016 ± 0.0014 | -0.002 ± 0.0042 | -0.005 ± 0.013 | -0.0005 ± 0.016 | -0.012 ± 0.0071 | -0.0055 ± 0.00071 | 0 ± 0.0042 | -0.007 ± 0.0057 | -0.015 | -0.005 ± 0.0099 | -0.0145 ± 0.0035 | -0.0085 ± 0.0021 | 0.0025 ± 0.022 | -0.0065 ± 0.005 | -0.0055 ± 0.0078
SAg:CCL2/MCP-1 | 0 ± 0.014 | -0.027 ± 0.0014 | -0.0015 ± 0.0035 | -0.0085 ± 0.019 | 0.017 ± 0.0028 | -0.0255 ± 0.012 | -0.0145 ± 0.0064 | -0.0035 ± 0.025 | -0.012 ± 0.0028 | -0.014 | 0.0175 ± 0.025 | -0.007 ± 0.021 | 0.006 ± 0.016 | 0.039 ± 0.02 | -0.007 ± 0.013 | -0.0075 ± 0.0092 | -0.0035 ± 0.0078 | -0.0165 ± 0.0035 | -0.0115 ± 0.00071
LPS:M-CSF | -0.0005 ± 0.0035 | 0.002 ± 0.011 | 0.0105 ± 0.043 | 0.0095 ± 0.0035 | -0.0035 ± 0.0092 | 0.008 ± 0.024 | -0.015 ± 0.03 | -0.0235 ± 0.025 | 0.004 ± 0.014 | -0.005 ± 0.016 | 0.003 ± 0.03 | 0.001 ± 0.0057 | -0.004 ± 0.023 | 0.016 ± 0.0028 | 0.001 ± 0.0085 | -0.0165 ± 0.00071 | 0.0235 ± 0.015 | 0.0085 ± 0.0035 | -0.005 ± 0.021
BE3C:CXCL11/I-TAC | -0.0175 ± 0.012 | -0.011 ± 0.018 | -0.0095 ± 0.00071 | 0.0035 ± 0.037 | 0.0175 ± 0.035 | 0.0105 ± 0.005 | -0.012 ± 0.011 | -0.0105 ± 0.005 | 0.007 ± 0.0099 | -0.003 ± 0.0014 | -0.0085 ± 0.015 | -0.0095 ± 0.005 | 0.008 ± 0.0014 | 0.018 ± 0.0099 | -0.0125 ± 0.0035 | -0.0115 ± 0.0092 | 0.0045 ± 0.00071 | -0.017 ± 0.0028 | -0.022 ± 0.0057
LPS:sPGE2 | 0.014 ± 0.033 | 0.0395 ± 0.0078 | -0.0125 ± 0.04 | -0.017 ± 0.025 | -0.022 ± 0.011 | -0.076 ± 0.025 | -0.059 ± 0.031 | -0.036 ± 0.013 | -0.0045 ± 0.012 | 0.0155 ± 0.025 | -0.0075 ± 0.0035 | -0.0145 ± 0.043 | -0.0585 ± 0.022 | -0.0615 ± 0.023 | -0.0295 ± 0.03 | 0.0045 ± 0.052 | -0.0185 ± 0.011 | -0.028 ± 0.05 | -0.0465 ± 0.039
BE3C:EGFR | -0.029 ± 0.021 | 0.008 ± 0.0042 | -0.022 ± 0.0071 | 0.025 ± 0.013 | 0.0035 ± 0.03 | -0.005 ± 0.0099 | -0.018 ± 0.0057 | 0.003 ± 0.0014 | 0.002 ± 0.0042 | 0.005 ± 0.0099 | -0.0035 ± 0.0035 | 0.012 ± 0.027 | 0.0075 ± 0.005 | 0.044 ± 0.042 | -0.0075 ± 0.05 | 0.0065 ± 0.018 | 0.0335 ± 0.04 | 0.004 ± 0.051 | -0.0025 ± 0.049
